In ChEMBL document CHEMBL4507258 (2021):

What was measured:
[1] = test system: Tyrosine-protein kinase ABL1 (Homo sapiens), P00519 [F317I]; details: Compound concentration 1000.0 nM
[2] = test system: Tyrosine-protein kinase ABL1 (Homo sapiens), P00519 [M351T]; details: Compound concentration 1000.0 nM
[3] = molecular target: Tyrosine-protein kinase ABL1 (Homo sapiens) (UniProt P00519); details: Compound concentration 1000.0 nM
[4] = molecular target: RAC-gamma serine/threonine-protein kinase (Homo sapiens) (UniProt Q9Y243); details: Compound concentration 1000.0 nM
Chain of RAC-gamma serine/threonine-protein kinase (Homo sapiens) (Q9Y243 whole entry): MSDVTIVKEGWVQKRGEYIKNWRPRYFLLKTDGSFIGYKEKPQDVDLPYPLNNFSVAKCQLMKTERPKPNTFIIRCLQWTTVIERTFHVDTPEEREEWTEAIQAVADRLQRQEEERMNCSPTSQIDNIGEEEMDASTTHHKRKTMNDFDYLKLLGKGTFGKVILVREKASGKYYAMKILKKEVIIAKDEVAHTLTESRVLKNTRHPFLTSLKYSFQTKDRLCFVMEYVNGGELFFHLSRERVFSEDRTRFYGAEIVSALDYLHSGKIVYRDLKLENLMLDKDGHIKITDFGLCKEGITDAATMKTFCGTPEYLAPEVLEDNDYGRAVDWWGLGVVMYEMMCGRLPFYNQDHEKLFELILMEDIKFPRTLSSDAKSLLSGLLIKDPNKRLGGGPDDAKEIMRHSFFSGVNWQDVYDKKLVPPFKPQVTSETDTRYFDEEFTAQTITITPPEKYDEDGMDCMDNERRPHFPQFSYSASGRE

[5] = molecular target: 5'-AMP-activated protein kinase catalytic subunit alpha-2 (Homo sapiens) (UniProt P54646); details: Compound concentration 1000.0 nM
[6] = molecular target: NUAK family SNF1-like kinase 1 (Homo sapiens) (UniProt O60285); details: Compound concentration 1000.0 nM
[7] = molecular target: Aurora kinase A (Homo sapiens) (UniProt O14965); details: Compound concentration 1000.0 nM
[8] = molecular target: Serine/threonine-protein kinase BRSK2 (Homo sapiens) (UniProt Q8IWQ3); details: Compound concentration 1000.0 nM
[9] = molecular target: Tyrosine-protein kinase BTK (Homo sapiens) (UniProt Q06187); details: Compound concentration 1000.0 nM
[10] = molecular target: Cyclin-dependent kinase 4 (Homo sapiens) (UniProt P11802); details: Compound concentration 1000.0 nM
[11] = molecular target: Dual specificity protein kinase CLK4 (Homo sapiens) (UniProt Q9HAZ1); details: Compound concentration 1000.0 nM
Chain of Dual specificity protein kinase CLK4 (Homo sapiens) (Q9HAZ1 whole entry, looked up): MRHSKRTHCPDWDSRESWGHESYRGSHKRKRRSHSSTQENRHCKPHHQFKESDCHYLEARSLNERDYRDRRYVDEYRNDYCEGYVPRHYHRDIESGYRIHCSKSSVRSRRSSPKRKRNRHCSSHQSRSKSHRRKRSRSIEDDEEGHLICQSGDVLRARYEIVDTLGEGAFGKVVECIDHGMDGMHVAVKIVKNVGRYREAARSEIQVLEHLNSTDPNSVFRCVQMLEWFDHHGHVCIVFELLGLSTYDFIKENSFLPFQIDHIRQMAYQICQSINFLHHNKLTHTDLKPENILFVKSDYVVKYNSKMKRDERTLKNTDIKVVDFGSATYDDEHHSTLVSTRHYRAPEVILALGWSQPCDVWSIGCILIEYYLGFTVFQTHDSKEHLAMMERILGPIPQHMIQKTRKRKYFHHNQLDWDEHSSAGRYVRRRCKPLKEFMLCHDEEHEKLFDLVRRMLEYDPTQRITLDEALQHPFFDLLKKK

[12] = molecular target: Serine/threonine-protein kinase 17B (Homo sapiens) (UniProt O94768); details: Compound concentration 1000.0 nM
[13] = molecular target: Ephrin type-A receptor 1 (Homo sapiens) (UniProt P21709); details: Compound concentration 1000.0 nM
[14] = molecular target: Ephrin type-A receptor 6 (Homo sapiens) (UniProt Q9UF33); details: Compound concentration 1000.0 nM
Chain of Ephrin type-A receptor 6 (Homo sapiens) (Q9UF33 whole entry): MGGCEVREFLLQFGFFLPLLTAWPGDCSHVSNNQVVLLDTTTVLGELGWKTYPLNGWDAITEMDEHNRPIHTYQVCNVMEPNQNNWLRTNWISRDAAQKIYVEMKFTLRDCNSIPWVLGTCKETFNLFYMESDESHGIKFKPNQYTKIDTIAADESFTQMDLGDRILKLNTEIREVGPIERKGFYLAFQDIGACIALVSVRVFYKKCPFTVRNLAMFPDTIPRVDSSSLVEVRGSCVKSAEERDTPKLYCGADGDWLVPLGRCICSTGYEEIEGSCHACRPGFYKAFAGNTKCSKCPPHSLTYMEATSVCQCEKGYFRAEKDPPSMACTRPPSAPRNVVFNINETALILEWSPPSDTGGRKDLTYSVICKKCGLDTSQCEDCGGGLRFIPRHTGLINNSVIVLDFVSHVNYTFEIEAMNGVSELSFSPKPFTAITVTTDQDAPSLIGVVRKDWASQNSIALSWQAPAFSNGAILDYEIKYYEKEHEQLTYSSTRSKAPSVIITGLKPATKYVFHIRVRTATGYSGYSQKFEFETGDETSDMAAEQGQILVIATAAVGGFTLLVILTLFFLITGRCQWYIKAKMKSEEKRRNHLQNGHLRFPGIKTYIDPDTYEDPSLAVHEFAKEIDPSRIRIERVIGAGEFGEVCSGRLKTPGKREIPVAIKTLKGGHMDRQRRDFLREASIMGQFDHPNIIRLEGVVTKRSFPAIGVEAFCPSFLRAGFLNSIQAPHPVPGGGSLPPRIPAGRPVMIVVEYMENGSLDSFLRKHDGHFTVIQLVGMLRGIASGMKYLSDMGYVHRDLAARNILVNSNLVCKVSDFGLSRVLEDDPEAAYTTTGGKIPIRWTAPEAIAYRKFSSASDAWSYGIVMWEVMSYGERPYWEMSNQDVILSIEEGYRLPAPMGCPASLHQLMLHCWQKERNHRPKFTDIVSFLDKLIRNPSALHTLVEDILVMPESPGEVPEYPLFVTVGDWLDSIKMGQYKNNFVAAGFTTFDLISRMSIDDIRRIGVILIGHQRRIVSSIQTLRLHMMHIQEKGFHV

[15] = molecular target: Fibroblast growth factor receptor 1 (Homo sapiens) (UniProt P11362); details: Compound concentration 1000.0 nM
[16] = molecular target: Vascular endothelial growth factor receptor 1 (Homo sapiens) (UniProt P17948); details: Compound concentration 1000.0 nM
[17] = molecular target: Receptor-type tyrosine-protein kinase FLT3 (Homo sapiens) (UniProt P36888); details: Compound concentration 1000.0 nM
[18] = molecular target: Glycogen synthase kinase-3 alpha (Homo sapiens) (UniProt P49840); details: Compound concentration 1000.0 nM
[19] = molecular target: Tyrosine-protein kinase HCK (Homo sapiens) (UniProt P08631); details: Compound concentration 1000.0 nM
[20] = molecular target: Hormonally up-regulated neu tumor-associated kinase (Homo sapiens) (UniProt P57058); details: Compound concentration 1000.0 nM
Chain of Hormonally up-regulated neu tumor-associated kinase (Homo sapiens) (P57058 whole entry): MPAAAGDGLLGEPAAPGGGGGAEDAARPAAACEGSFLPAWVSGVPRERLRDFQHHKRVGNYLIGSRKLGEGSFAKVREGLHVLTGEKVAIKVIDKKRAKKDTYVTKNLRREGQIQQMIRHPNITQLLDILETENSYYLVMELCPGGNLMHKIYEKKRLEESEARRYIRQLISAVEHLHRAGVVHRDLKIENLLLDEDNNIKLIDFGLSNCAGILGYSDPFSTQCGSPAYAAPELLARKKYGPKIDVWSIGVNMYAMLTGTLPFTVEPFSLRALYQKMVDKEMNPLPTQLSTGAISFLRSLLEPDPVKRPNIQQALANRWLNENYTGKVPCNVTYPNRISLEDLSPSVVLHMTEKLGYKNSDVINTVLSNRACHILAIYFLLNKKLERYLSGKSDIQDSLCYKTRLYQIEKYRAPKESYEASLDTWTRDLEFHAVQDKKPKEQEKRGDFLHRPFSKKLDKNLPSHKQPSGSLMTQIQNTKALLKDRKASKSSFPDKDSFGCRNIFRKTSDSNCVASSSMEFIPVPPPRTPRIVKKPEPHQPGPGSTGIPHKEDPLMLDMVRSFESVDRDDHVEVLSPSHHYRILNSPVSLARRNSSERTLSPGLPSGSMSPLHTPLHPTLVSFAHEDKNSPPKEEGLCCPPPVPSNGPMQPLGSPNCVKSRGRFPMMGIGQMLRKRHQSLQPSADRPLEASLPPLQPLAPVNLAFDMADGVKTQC

[21] = molecular target: Mitogen-activated protein kinase 8 (Homo sapiens) (UniProt P45983); details: Compound concentration 1000.0 nM
[22] = molecular target: MAP/microtubule affinity-regulating kinase 4 (Homo sapiens) (UniProt Q96L34); details: Compound concentration 1000.0 nM
[23] = molecular target: Myosin-IIIa (Homo sapiens) (UniProt Q8NEV4); details: Compound concentration 1000.0 nM
[24] = molecular target: Cyclin-dependent kinase 2 homolog (Plasmodium falciparum (isolate 3D7)) (UniProt P61075); details: Compound concentration 1000.0 nM
Chain of Cyclin-dependent kinase 2 homolog (Plasmodium falciparum (isolate 3D7)) (P61075 whole entry, canonical isoform): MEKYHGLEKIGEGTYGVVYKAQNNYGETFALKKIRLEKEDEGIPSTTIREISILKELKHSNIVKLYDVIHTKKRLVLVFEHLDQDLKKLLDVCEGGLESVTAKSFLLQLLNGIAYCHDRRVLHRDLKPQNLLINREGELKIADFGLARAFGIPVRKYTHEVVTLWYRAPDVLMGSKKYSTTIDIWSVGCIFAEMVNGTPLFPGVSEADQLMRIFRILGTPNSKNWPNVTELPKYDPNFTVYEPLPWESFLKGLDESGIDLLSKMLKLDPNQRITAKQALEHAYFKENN

[25] = test system: Phosphatidylinositol 4,5-bisphosphate 3-kinase catalytic subunit alpha isoform (Homo sapiens), P42336 [E542K]; details: Compound concentration 1000.0 nM
[26] = molecular target: Serine/threonine-protein kinase PLK1 (Homo sapiens) (UniProt P53350); details: Compound concentration 1000.0 nM
[27] = molecular target: Serine/threonine-protein kinase SIK3 (Homo sapiens) (UniProt Q9Y2K2); details: Compound concentration 1000.0 nM
[28] = test system: Proto-oncogene tyrosine-protein kinase receptor Ret (Homo sapiens), P07949 [M918T]; details: Compound concentration 1000.0 nM
Chain of Proto-oncogene tyrosine-protein kinase receptor Ret (Homo sapiens), P07949 [M918T] (P07949 whole entry M918T): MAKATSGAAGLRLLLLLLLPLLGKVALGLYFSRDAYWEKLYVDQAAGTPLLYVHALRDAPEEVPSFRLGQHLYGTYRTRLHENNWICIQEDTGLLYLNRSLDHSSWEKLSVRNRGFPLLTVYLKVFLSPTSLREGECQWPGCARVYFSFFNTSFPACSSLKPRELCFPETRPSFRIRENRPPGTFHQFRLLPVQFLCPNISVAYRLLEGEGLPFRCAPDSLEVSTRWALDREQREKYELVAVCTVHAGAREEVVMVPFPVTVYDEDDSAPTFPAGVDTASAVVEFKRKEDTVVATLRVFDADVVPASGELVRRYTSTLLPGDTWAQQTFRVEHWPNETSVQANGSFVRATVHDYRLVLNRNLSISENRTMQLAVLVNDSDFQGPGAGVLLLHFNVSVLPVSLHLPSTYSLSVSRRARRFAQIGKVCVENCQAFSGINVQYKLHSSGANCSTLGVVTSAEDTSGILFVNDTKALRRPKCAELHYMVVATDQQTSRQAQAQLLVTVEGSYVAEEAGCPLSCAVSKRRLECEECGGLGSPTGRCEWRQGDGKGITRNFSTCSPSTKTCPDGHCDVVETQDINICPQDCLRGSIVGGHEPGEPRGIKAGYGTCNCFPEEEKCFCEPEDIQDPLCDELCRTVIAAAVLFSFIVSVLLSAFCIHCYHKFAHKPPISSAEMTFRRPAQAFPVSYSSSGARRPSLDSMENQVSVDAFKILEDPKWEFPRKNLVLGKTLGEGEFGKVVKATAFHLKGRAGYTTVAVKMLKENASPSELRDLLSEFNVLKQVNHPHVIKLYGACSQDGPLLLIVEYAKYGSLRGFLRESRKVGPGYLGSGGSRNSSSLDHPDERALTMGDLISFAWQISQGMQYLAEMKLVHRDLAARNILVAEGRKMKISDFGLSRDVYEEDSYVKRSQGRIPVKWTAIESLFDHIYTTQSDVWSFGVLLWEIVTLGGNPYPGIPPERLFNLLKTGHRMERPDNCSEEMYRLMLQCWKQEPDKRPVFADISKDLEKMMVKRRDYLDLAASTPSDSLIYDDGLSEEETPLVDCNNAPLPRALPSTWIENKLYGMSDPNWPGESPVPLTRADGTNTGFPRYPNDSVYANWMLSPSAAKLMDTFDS

[29] = molecular target: Receptor-interacting serine/threonine-protein kinase 1 (Homo sapiens) (UniProt Q13546); details: Compound concentration 1000.0 nM
[30] = molecular target: Proto-oncogene tyrosine-protein kinase ROS (Homo sapiens) (UniProt P08922); details: Compound concentration 1000.0 nM
[31] = molecular target: Ribosomal protein S6 kinase alpha-2 (Homo sapiens) (UniProt Q15349); details: Compound concentration 1000.0 nM
[32] = molecular target: Serine/threonine-protein kinase SIK1 (Homo sapiens, UniProt P57059); details: Compound concentration 1000.0 nM
[33] = molecular target: Proto-oncogene tyrosine-protein kinase Src (Homo sapiens) (UniProt P12931); details: Compound concentration 1000.0 nM
[34] = molecular target: Serine/threonine-protein kinase TAO1 (Homo sapiens) (UniProt Q7L7X3); details: Compound concentration 1000.0 nM
[35] = molecular target: Serine/threonine-protein kinase ULK1 (Homo sapiens) (UniProt O75385); details: Compound concentration 1000.0 nM
[36] = molecular target: Serine/threonine-protein kinase WNK4 (Homo sapiens) (UniProt Q96J92); details: Compound concentration 1000.0 nM
[37] = molecular target: Serine/threonine-protein kinase 32C (Homo sapiens) (UniProt Q86UX6); details: Compound concentration 1000.0 nM
Chain of Serine/threonine-protein kinase 32C (Homo sapiens) (Q86UX6 whole entry): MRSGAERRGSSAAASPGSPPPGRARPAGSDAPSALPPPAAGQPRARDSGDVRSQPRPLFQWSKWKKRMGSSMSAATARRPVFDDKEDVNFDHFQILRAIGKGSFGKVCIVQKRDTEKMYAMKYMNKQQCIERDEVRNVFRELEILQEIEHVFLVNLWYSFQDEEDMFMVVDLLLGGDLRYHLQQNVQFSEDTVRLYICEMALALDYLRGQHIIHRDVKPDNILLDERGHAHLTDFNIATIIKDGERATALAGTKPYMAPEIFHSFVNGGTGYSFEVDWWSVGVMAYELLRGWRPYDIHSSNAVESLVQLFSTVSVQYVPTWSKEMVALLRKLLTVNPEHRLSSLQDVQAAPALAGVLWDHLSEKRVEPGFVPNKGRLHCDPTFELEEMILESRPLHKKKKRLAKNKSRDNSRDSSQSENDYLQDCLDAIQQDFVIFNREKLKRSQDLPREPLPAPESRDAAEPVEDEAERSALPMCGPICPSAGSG

[38] = molecular target: 5-hydroxytryptamine receptor 1B (Homo sapiens) (UniProt P28222); details: Compound concentration 10.0 uM
[39] = molecular target: Kappa-type opioid receptor (Homo sapiens, UniProt P41145); details: Compound concentration 10.0 uM
Chain of Kappa-type opioid receptor (P41145 whole entry): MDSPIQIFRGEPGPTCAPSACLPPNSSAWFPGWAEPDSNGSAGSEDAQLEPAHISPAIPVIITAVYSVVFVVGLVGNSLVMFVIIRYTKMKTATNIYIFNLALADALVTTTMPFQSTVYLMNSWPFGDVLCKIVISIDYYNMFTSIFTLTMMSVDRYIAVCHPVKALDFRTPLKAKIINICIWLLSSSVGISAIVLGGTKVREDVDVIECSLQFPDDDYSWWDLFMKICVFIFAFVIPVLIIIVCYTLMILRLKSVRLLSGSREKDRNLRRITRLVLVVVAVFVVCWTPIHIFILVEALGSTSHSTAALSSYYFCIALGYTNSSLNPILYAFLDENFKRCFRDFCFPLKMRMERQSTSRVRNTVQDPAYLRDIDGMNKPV

Compound | residual activity [1] [%] | residual activity [2] [%] | residual activity [3] [%] | residual activity [4] [%] | residual activity [5] [%] | residual activity [6] [%] | residual activity [7] [%] | residual activity [8] [%] | residual activity [9] [%] | residual activity [10] [%] | residual activity [11] [%] | residual activity [12] [%] | residual activity [13] [%] | residual activity [14] [%] | residual activity [15] [%] | residual activity [16] [%] | residual activity [17] [%] | residual activity [18] [%] | residual activity [19] [%] | residual activity [20] [%] | other results
CCCCN(CCCC)C(=O)CN1C[C@@H](c2cc(OC)c3c(c2)OCO3)[C@H](C(=O)O)[C@H]1CC(C)(C)CCC [A-545] | 94.3 | 100 | 100 | 100 | 92.6 | 82.4 | 90.2 | 98.3 | 100 | 100 | 72.4 | 100 | 85.5 | 100 | 100 | 100 | 91.9 | 79.9 | 82.8 | 96.8 | residual activity [21]: 92.1%; residual activity [22]: 93%; residual activity [23]: 100%; residual activity [24]: 95.9%; residual activity [25]: 100%; residual activity [26]: 100%; residual activity [27]: 74.8%; residual activity [28]: 100%; residual activity [29]: 100%; residual activity [30]: 100%; residual activity [31]: 90.2%; residual activity [32]: 100%; residual activity [33]: 75.2%; residual activity [34]: 97.4%; residual activity [35]: 89.2%; residual activity [36]: 100%; residual activity [37]: 100%; inhibition [38]: -2.98%; inhibition [39]: 69.9%
CCCCN(CCCC)C(=O)CN1C[C@H](c2cc(OC)c3c(c2)OCO3)[C@@H](C(=O)O)[C@@H]1CC(C)(C)CCC [ABT-546] | 72.5 | 96.9 | 79.8 | 100 | 100 | 100 | 90.3 | 95.6 | 61.3 | 70.3 | 100 | 100 | 92.6 | 100 | 89.4 | 100 | 100 | 92.3 | 100 | 100 | residual activity [21]: 100%; residual activity [22]: 98.3%; residual activity [23]: 100%; residual activity [24]: 72.2%; residual activity [25]: 57.4%; residual activity [26]: 73.5%; residual activity [27]: 60.5%; residual activity [28]: 100%; residual activity [29]: 100%; residual activity [30]: 100%; residual activity [31]: 100%; residual activity [32]: 100%; residual activity [33]: 100%; residual activity [34]: 55.6%; residual activity [35]: 79.4%; residual activity [36]: 97.9%; residual activity [37]: 100%; inhibition [38]: 2.64%; inhibition [39]: -1.47%
